These results are taken from article PMC11505038, “Kalata B1 Enhances Temozolomide Toxicity to Glioblastoma Cells” (Biomedicines, 2024).

Where two headings read alike, the source gives them in different places.

Usually IC50 stands for the point on the concentration scale where inhibition reaches its midpoint.

For test [1], the system named is T-98G human glioblastoma cells. Nature of the test: cells. To be noted: Homo sapiens, T98G, 72 h, read-out: IC50 (μM) ± S.D. How it is done: (§1) SH-SY5Y human neuroblastoma cells (population doubling (PD) 20−24), T-98G, and U-87 MG human glioblastoma cells were removed from cryogenic storage, thawed rapidly in a water bath (37 °C) and reconstituted in 75 cm^2 flasks. For SH-SY5Y, the following media were used: Dulbecco’s modified Eagle’s medium/Nutrient F12 Ham (Sigma-Aldrich, Cat. No. D8437) containing 10% heat-inactivated fetal bovine serum, 4 mM L-glutamine, 100 U/mL penicillin, and 100 μg/mL streptomycin. For U-87 MG and T-98G Eagle’s minimal essential medium (ATCC: The Global Bioresource Center, Cat. No. ATCC 30-2003), containing 10% heat-inactivated fetal bovine serum, 4 mM L-glutamine, 100 U/mL penicillin, and 100 μg/mL streptomycin were used.
(§2) Cells were incubated at 37 °C in a humidified atmosphere of 5% CO2 and 95% air until recovered and ready for passaging (approximately 4 days). At between 80% and 90% confluence, the cells were trypsinized with warm (37 °C) sterile 0.5% Trypsin-EDTA (Thermo Fisher, Cat. No. 15400054) and passaged into 175 cm^2 flasks, where they were left to multiply until they reached 80−90% confluence. To plate cells: cultures were trypsinized, resuspended in 20 mL sterile PBS, counted using a cell counter (Olympus cell counter model R1), and plated in 96-well plates at an optimal density of 6000 cells/well in the designated culture media. The cells were left to adhere overnight before treatment the following day, when the culture medium was removed and replaced with the treatment medium. All incubations were conducted in triplicate wells and repeated at least three times (n = 3).
(§3) To calculate TMZ IC50 values in each cell line, TMZ was dissolved in DMSO at a stock concentration of 103 mM, which was then diluted into culture medium on the day of use, with the DMSO final concentration always less than 0.1%. The following concentrations of TMZ were used in the experiments: 0.5, 5, 50, 500, 2500, 5000 μM. The media were sterilized for each treatment media with a 0.22 μm filter before they were added to cell cultures. To determine the IC50 values for each cyclotide in each cell type, cyclotides were dissolved into 10% DMSO and then dilutions used to screen cyclotides with a final DMSO concentration of less than 0.1% The following concentrations of cyclotides were used: 0.1, 1, 5, 10 μM. For co-exposure experiments, a simultaneous exposure of cyclotide and TMZ at each respective dose was added to cell cultures (100 μL final volume per well).
(§4) In accordance with the methods developed by Mosmann and colleagues, the MTT assay was conducted using the Roche cell proliferation kit (Cat. No. 11465007001). Briefly, cells that are active can cleave MTT. The MTT is originally a yellow tetrazolium salt that undergoes a colorimetric change to purple formazan crystals, and the change in absorbance can be measured as an indicator of cell viability/proliferation. For these experiments, cells were plated into 96-well flat-bottom plates, as described in the cell culture above. […] To align with our previous work, experiments were conducted with a 72 h time frame for cytotoxicity evaluation.
(§5) After a 72 h incubation period, plates were removed from the incubator and 10 µL of MTT was added to each well. The plates were returned to the incubator for an additional 4 h, after which 100 µL of a solubilization solution was added to each well. The plates were returned to incubation overnight, and the next day absorbances were read at 570 nm on a Molecular Devices FlexStation 3 using SoftMax Pro Microplate Data Acquisition and Analysis Software (version 7.0.2).

The subject of test [2] is U-87 MG human glioblastoma cells. Nature of the test: cells. How it is done: as §1, §2, §3, §4, §5
For test [3], the system named is U-87 MG cells. The test is described as follows: Phase contrast microscopy of U-87 MG cultures. To be noted: 72 h, 150 µM TMZ alone or 0.5 µM synthetic Kalata B1 alone, 20× phase contrast. Format: cell-based, human.
The subject of test [4] is U-87 MG human glioblastoma cells. The note with it: MTT, 72 h, previously published data; cited from earlier work. As to the method: Table 4 Toxicity and IC50 values of five cyclotides and TMZ in SH-SY5Y, U-87 MG, and T-98G cell cultures. | column: IC50 (μM) ± S.D. || The IC50 values of natural and synthetic cyclotides, as well as TMZ, are provided in Table 4. […] The IC50 values were calculated using nonlinear regression analysis with dose-dependent inhibition and an inhibitor vs. no ... || Figure 5 Effect of natural and synthetic Kalata B1 on cell viability in SH-SY5Y, U-87MG, and T-98G cells cultures. The IC50 values for the cyclotides were determined using MTT assay after incubation with cells at increasing concentrations (0.1, 1, 5, and 10 μM) as compared to the control. Panel (A): SH-SY5Y and U-87 MG cells, and panel (B) T-98G and U-87 MG cells. Cultures (6000 cells per well in a 96-well plate), were treated with the cyclotide indicated, for 72 h, then MTT measured. Cell viability was calculated as a percentage of control cultures. IC50 values were calculated using the Best ... || (+ 4 further places)

The subject of test [5] is SH-SY5Y human neuroblastoma cells. The note with it: MTT, 72 h, previously published data; cited from earlier work. As to the method:
Table 4 Toxicity and IC50 values of five cyclotides and TMZ in SH-SY5Y, U-87 MG, and T-98G cell cultures. | column: IC50 (μM) ± S.D. || Figure 5 Effect of natural and synthetic Kalata B1 on cell viability in SH-SY5Y, U-87MG, and T-98G cells cultures. The IC50 values for the cyclotides were determined using MTT assay after incubation with cells at increasing concentrations (0.1, 1, 5, and 10 μM) as compared to the control. Panel (A): SH-SY5Y and U-87 MG cells, and panel (B) T-98G and U-87 MG cells. Cultures (6000 cells per well in a 96-well plate), were treated with the cyclotide indicated, for 72 h, then MTT measured. Cell viability was calculated as a percentage of control cultures. IC50 values were calculated using the Best ... || To evaluate the cytotoxicity of plant-derived Kalata B1 and synthetic Kalata B1, MTT assays were performed with T-98G, U-87 MG, and SH-SY5Y cell cultures.

The subject of test [6] is TMZ-resistant cell line T-98G. The note with it: ref Lee 31, read-out: Range of TMZ IC50 values summarized in the literature; cited from earlier work. The source says:
Symptoms of GBM include seizures, headaches, nausea, and memory loss, and the side effects of TMZ can not only intensify headaches and nausea but also include diarrhea, constipation, loss of appetite, and sores in the mouth and throat. TMZ is an oral DNA alkylating agent that induces cell cycle arrest at G2/M, and its cytotoxicity is mediated by the addition of methyl groups at N^7 and O^6 sites on guanines and the […] in genomic DNA. A thymine instead of a cytosine is inserted during the alkylation of the O^6 site on guanine, which can cause cell death during DNA replication. ...

Consider `Cn1nnc2c(C(N)=O)ncn2c1=O` [TMZ, temozolomide], for which the IC50 in test [1] was 1160 ± 5.31 µM; in test [2] (Homo sapiens, U-87 MG, 72 h, read-out: IC50 (μM) ± S.D.), 1617 ± 5.56 µM; in test [4] it was 2898 ± 6 µM; in test [5], 393 ± 4.5 µM; in test [6], 250 to 1580 µM. Also, in test [2], the “Cell death in MTT cell viability assay” value was “less than 15%”. The “Morphological changes versus control cultures, single agent” value in test [3] was “little differences”.
